{"source": "PubChem BioAssay AID328", "about": "(DTP/NCI, 2004)", "tested_on": "BDF1 mice, P388 leukemia ip, median survival T/C", "assay": "NCI In Vivo Anticancer Drug Screen. Data for tumor model P388 Leukemia (intraperitoneal) in B6D2F1 (BDF1) mice", "details": "endpoint: median survival time, higher = longer survival", "how_it_was_run": "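Read-out is survival of treated animals expressed relative to the vehicle group, as a T/C ratio.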", "note": "Values joined by “and” are separate entries in the source; they are usually repeats but may differ in a detail not shown here. Equal entries are not always repeated. Inconclusive results and toxic doses are left out.", "data": [{"smiles": "COc1cccc2c1C(=O)c1c(O)c3c(c(O)c1C2=O)C[C@@](O)(C(C)=O)C[C@@H]3OC1CC(N)C(O)C(C)O1", "note": "(stereo partly specified)", "values": [{"measurement": "T/C", "setting": "dose: 0.03 mg/kg/injection, schedule: Q01DX010 (ip), vehicle: saline", "result": "108 % of control"}, {"measurement": "T/C", "setting": "dose: 0.06 mg/kg/injection, schedule: Q## X020 (ip), vehicle: saline", "result": "108 % of control"}, {"measurement": "T/C", "setting": "dose: 0.13 mg/kg/injection, schedule: Q01DX010 (ip), vehicle: saline", "result": "150 % of control"}, {"measurement": "T/C", "setting": "dose: 0.13 mg/kg/injection, schedule: Q03HX024 (ip), vehicle: saline", "result": "200 % of control"}, {"measurement": "T/C", "setting": "dose: 0.13 mg/kg/injection, schedule: Q## X020 (ip), vehicle: saline", "result": "100 % of control"}, {"measurement": "T/C", "setting": "dose: 0.21 mg/kg/injection, schedule: Q03HX024 (ip), vehicle: saline", "result": "210 % of control"}, {"measurement": "T/C", "setting": "dose: 0.21 mg/kg/injection, schedule: Q## X010 (ip), vehicle: saline", "result": "190 % of control"}, {"measurement": "T/C", "setting": "dose: 0.21 mg/kg/injection, schedule: Q## X020 (ip), vehicle: saline", "result": "195 % of control"}, {"measurement": "T/C", "setting": "dose: 0.25 mg/kg/injection, schedule: Q01DX009 (ip), vehicle: saline", "result": "208 % of control"}, {"measurement": "T/C", "setting": "dose: 0.25 mg/kg/injection, schedule: Q01DX010 (ip), vehicle: clinical formulation", "result": "159 % of control"}, {"measurement": "T/C", "setting": "dose: 0.36 mg/kg/injection, schedule: Q03HX024 (ip), vehicle: saline", "result": "205 % of control"}, {"measurement": "T/C", "setting": "dose: 0.36 mg/kg/injection, schedule: Q04DX003 (ip), vehicle: saline", "result": "180 % of control"}, {"measurement": "T/C", "setting": "dose: 0.36 mg/kg/injection, schedule: Q## X020 (ip), vehicle: saline", "result": "200 % of control"}, {"measurement": "T/C", "setting": "dose: 0.38 mg/kg/injection, schedule: Q01DX010 (ip), vehicle: saline", "result": "189 % of control"}, {"measurement": "T/C", "setting": "dose: 0.5 mg/kg/injection, schedule: Q01DX009 (ip), vehicle: saline", "result": "170 % of control"}, {"measurement": "T/C", "setting": "dose: 0.5 mg/kg/injection, schedule: Q01DX010 (ip), vehicle: clinical formulation", "result": "168 % of control"}, {"measurement": "T/C", "setting": "dose: 0.5 mg/kg/injection, schedule: Q01DX010 (ip), vehicle: water", "result": "175 % of control"}, {"measurement": "T/C", "setting": "dose: 0.5 mg/kg/injection, schedule: Q03HX008 (ip), vehicle: water", "result": "181 % of control"}, {"measurement": "T/C", "setting": "dose: 0.5 mg/kg/injection, schedule: Q06HX004 (ip), vehicle: water", "result": "190 % of control"}, {"measurement": "T/C", "setting": "dose: 0.5 mg/kg/injection, schedule: Q## X020 (ip), vehicle: saline", "result": "100 % of control and 207 % of control"}, {"measurement": "T/C", "setting": "dose: 0.6 mg/kg/injection, schedule: Q03HX024 (ip), vehicle: saline", "result": "235 % of control"}, {"measurement": "T/C", "setting": "dose: 0.6 mg/kg/injection, schedule: Q04DX003 (ip), vehicle: saline", "result": "215 % of control"}, {"measurement": "T/C", "setting": "dose: 0.6 mg/kg/injection, schedule: Q## X010 (ip), vehicle: saline", "result": "210 % of control"}, {"measurement": "T/C", "setting": "dose: 0.6 mg/kg/injection, schedule: Q## X020 (ip), vehicle: saline", "result": "190 % of control"}, {"measurement": "T/C", "setting": "dose: 0.63 mg/kg/injection, schedule: Q01DX010 (ip), vehicle: saline", "result": "195 % of control and 200 % of control"}, {"measurement": "T/C", "setting": "dose: 0.75 mg/kg/injection, schedule: Q01DX010 (ip), vehicle: saline", "result": "205 % of control"}, {"measurement": "T/C", "setting": "dose: 0.78 mg/kg/injection, schedule: Q04DX002 (ip), vehicle: saline", "result": "172 % of control"}, {"measurement": "T/C", "setting": "dose: 1.0 mg/kg/injection, schedule: Q01DX009 (ip), vehicle: saline", "result": "108 % of control"}, {"measurement": "T/C", "setting": "dose: 1.0 mg/kg/injection, schedule: Q01DX010 (ip), vehicle: clinical formulation", "result": "163 % of control"}, {"measurement": "T/C", "setting": "dose: 1.0 mg/kg/injection, schedule: Q01DX010 (ip), vehicle: water", "result": "195 % of control"}, {"measurement": "T/C", "setting": "dose: 1.0 mg/kg/injection, schedule: Q03HX008 (ip), vehicle: water", "result": "204 % of control"}, {"measurement": "T/C", "setting": "dose: 1.0 mg/kg/injection, schedule: Q03HX024 (ip), vehicle: saline", "result": "115 % of control"}, {"measurement": "T/C", "setting": "dose: 1.0 mg/kg/injection, schedule: Q04DX003 (ip), vehicle: water", "result": "115 % of control"}, {"measurement": "T/C", "setting": "dose: 1.0 mg/kg/injection, schedule: Q06HX004 (ip), vehicle: water", "result": "190 % of control"}, {"measurement": "T/C", "setting": "dose: 1.0 mg/kg/injection, schedule: Q## X010 (ip), vehicle: saline", "result": "200 % of control"}, {"measurement": "T/C", "setting": "dose: 1.0 mg/kg/injection, schedule: Q## X020 (ip), vehicle: saline", "result": "287 % of control and 108 % of control and 209 % of control"}, {"measurement": "T/C", "setting": "dose: 1.25 mg/kg/injection, schedule: Q01DX009 (ip), vehicle: water", "result": "176 % of control"}, {"measurement": "T/C", "setting": "dose: 1.25 mg/kg/injection, schedule: Q01DX010 (ip), vehicle: saline", "result": "227 % of control and 215 % of control"}, {"measurement": "T/C", "setting": "dose: 1.3 mg/kg/injection, schedule: Q01DX009 (ip), vehicle: clinical formulation", "result": "231 % of control"}, {"measurement": "T/C", "setting": "dose: 1.5 mg/kg/injection, schedule: Q01DX010 (ip), vehicle: saline", "result": "210 % of control"}, {"measurement": "T/C", "setting": "dose: 1.56 mg/kg/injection, schedule: Q01DX009 (ip), vehicle: water", "result": "157 % of control and 196 % of control"}, {"measurement": "T/C", "setting": "dose: 1.56 mg/kg/injection, schedule: Q04DX002 (ip), vehicle: saline", "result": "209 % of control"}, {"measurement": "T/C", "setting": "dose: 1.7 mg/kg/injection, schedule: Q04DX003 (ip), vehicle: saline", "result": "225 % of control"}, {"measurement": "T/C", "setting": "dose: 1.7 mg/kg/injection, schedule: Q## X010 (ip), vehicle: saline", "result": "165 % of control"}, {"measurement": "T/C", "setting": "dose: 1.7 mg/kg/injection, schedule: Q## X020 (ip), vehicle: saline", "result": "180 % of control"}, {"measurement": "T/C", "setting": "dose: 1.8 mg/kg/injection, schedule: Q01DX009 (ip), vehicle: water", "result": "161 % of control"}, {"measurement": "T/C", "setting": "dose: 2.0 mg/kg/injection, schedule: Q01DX009 (ip), vehicle: clinical formulation", "result": "257 % of control"}, {"measurement": "T/C", "setting": "dose: 2.0 mg/kg/injection, schedule: Q01DX010 (ip), vehicle: clinical formulation", "result": "172 % of control"}, {"measurement": "T/C", "setting": "dose: 2.0 mg/kg/injection, schedule: Q01DX010 (ip), vehicle: water", "result": "95 % of control"}, {"measurement": "T/C", "setting": "dose: 2.0 mg/kg/injection, schedule: Q03HX008 (ip), vehicle: water", "result": "95 % of control"}, {"measurement": "T/C", "setting": "dose: 2.0 mg/kg/injection, schedule: Q06HX004 (ip), vehicle: water", "result": "195 % of control"}, {"measurement": "T/C", "setting": "dose: 2.5 mg/kg/injection, schedule: Q01DX001 (ip), vehicle: saline", "result": "109 % of control and 215 % of control"}, {"measurement": "T/C", "setting": "dose: 2.5 mg/kg/injection, schedule: Q01DX009 (ip), vehicle: water", "result": "97 % of control"}, {"measurement": "T/C", "setting": "dose: 2.9 mg/kg/injection, schedule: Q04DX003 (ip), vehicle: saline", "result": "200 % of control"}, {"measurement": "T/C", "setting": "dose: 3.0 mg/kg/injection, schedule: Q01DX009 (ip), vehicle: clinical formulation", "result": "157 % of control"}, {"measurement": "T/C", "setting": "dose: 3.0 mg/kg/injection, schedule: Q01DX009 (ip), vehicle: water", "result": "173 % of control"}, {"measurement": "T/C", "setting": "dose: 3.0 mg/kg/injection, schedule: Q01DX010 (ip), vehicle: saline", "result": "189 % of control"}, {"measurement": "T/C", "setting": "dose: 3.13 mg/kg/injection, schedule: Q01DX009 (ip), vehicle: water", "result": "90 % of control"}, {"measurement": "T/C", "setting": "dose: 3.13 mg/kg/injection, schedule: Q04DX002 (ip), vehicle: saline", "result": "169 % of control and 181 % of control"}, {"measurement": "T/C", "setting": "dose: 4.0 mg/kg/injection, schedule: Q01DX010 (ip), vehicle: clinical formulation", "result": "104 % of control"}, {"measurement": "T/C", "setting": "dose: 4.0 mg/kg/injection, schedule: Q01DX010 (ip), vehicle: water", "result": "90 % of control"}, {"measurement": "T/C", "setting": "dose: 4.5 mg/kg/injection, schedule: Q01DX009 (ip), vehicle: clinical formulation", "result": "100 % of control"}, {"measurement": "T/C", "setting": "dose: 5.0 mg/kg/injection, schedule: Q01DX010 (ip), vehicle: saline", "result": "120 % of control"}, {"measurement": "T/C", "setting": "dose: 6.25 mg/kg/injection, schedule: Q04DX002 (ip), vehicle: saline", "result": "100 % of control"}, {"measurement": "T/C", "setting": "dose: 13.33 mg/kg/injection, schedule: Q04DX003 (ip), vehicle: water", "result": "100 % of control and 207 % of control"}, {"measurement": "T/C", "setting": "dose: 16.0 mg/kg/injection, schedule: Q04DX009 (ip), vehicle: water", "result": "96 % of control"}, {"measurement": "T/C", "setting": "dose: 78.0 micrograms/kg/injection, schedule: Q01DX010 (ip), vehicle: saline", "result": "165 % of control"}, {"measurement": "T/C", "setting": "dose: 125.0 micrograms/kg/injection, schedule: Q01DX010 (ip), vehicle: clinical formulation", "result": "150 % of control"}, {"measurement": "T/C", "setting": "dose: 156.0 micrograms/kg/injection, schedule: Q01DX010 (ip), vehicle: saline", "result": "185 % of control"}, {"measurement": "T/C", "setting": "dose: 250.0 micrograms/kg/injection, schedule: Q01DX010 (ip), vehicle: clinical formulation", "result": "183 % of control"}, {"measurement": "T/C", "setting": "dose: 313.0 micrograms/kg/injection, schedule: Q01DX010 (ip), vehicle: saline", "result": "185 % of control"}, {"measurement": "T/C", "setting": "dose: 500.0 micrograms/kg/injection, schedule: Q01DX010 (ip), vehicle: clinical formulation", "result": "195 % of control"}, {"measurement": "T/C", "setting": "dose: 625.0 micrograms/kg/injection, schedule: Q01DX010 (ip), vehicle: saline", "result": "200 % of control"}, {"measurement": "T/C", "setting": "dose: 1300.0 micrograms/kg/injection, schedule: Q04DX003 (ip), vehicle: water", "result": "174 % of control"}, {"measurement": "T/C", "setting": "dose: 2160.0 micrograms/kg/injection, schedule: Q04DX003 (ip), vehicle: water", "result": "162 % of control"}, {"measurement": "T/C", "setting": "dose: 3600.0 micrograms/kg/injection, schedule: Q04DX003 (ip), vehicle: water", "result": "117 % of control"}]}]}
